What was measured:
Assay in all cases: Kinase inhibitory activity profiling of RI-962@10 µM (406 kinases, Eurofins)
Assay type in all cases: biochemical
[1] = target: panel of human kinases (kinase named in endpoint) (Homo sapiens, UniProt O14965); settings: 10 µM; read-out: Activity (%), Aurora-A(h)
In short: (§1)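 Radiometric filter-binding kinase assays: enzyme preincubated 15 min with compound in 8 mM MOPS pH 7.0, 0.2 mM EDTA, 250 μM peptide substrate, 10 mM magnesium acetate, 10 μM [γ-33P]-ATP. Reaction started with Mg/ATP, run 40 min at room temperature, stopped with phosphoric acid; 33P incorporation read by scintillation counting. Other kinases by similar protocols.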

[2] = target: panel of human kinases (kinase named in endpoint) (Homo sapiens, UniProt O43318); settings: 10 µM; read-out: Activity (%), TAK1(h)
In short: as §1

[3] = target: panel of human kinases (kinase named in endpoint) (Homo sapiens, UniProt O60674); settings: 10 µM; read-out: Activity (%), JAK2(h)
In short: as §1

[4] = target: panel of human kinases (kinase named in endpoint) (Homo sapiens, UniProt O94804); settings: 10 µM; read-out: Activity (%), LOK(h)
In short: as §1

[5] = target: panel of human kinases (kinase named in endpoint) (Homo sapiens, UniProt P06493); settings: 10 µM; read-out: Activity (%), CDK1/cyclinB(h)
In short: as §1

[6] = target: panel of human kinases (kinase named in endpoint) (Homo sapiens, UniProt P07947); settings: 10 µM; read-out: Activity (%), Yes(h)
In short: as §1

[7] = target: panel of human kinases (kinase named in endpoint) (Homo sapiens, UniProt P08581, D1228H); settings: 10 µM; read-out: Activity (%), Met(D1246H)(h)
In short: as §1

[8] = target: panel of human kinases (kinase named in endpoint) (Homo sapiens, UniProt P08581, Y1230H); settings: 10 µM; read-out: Activity (%), Met(Y1248H)(h)
In short: as §1

[9] = target: panel of human kinases (kinase named in endpoint) (Homo sapiens, UniProt P09619); settings: 10 µM; read-out: Activity (%), PDGFRβ(h)
In short: as §1

[10] = target: panel of human kinases (kinase named in endpoint) (Homo sapiens, UniProt P16234); settings: 10 µM; read-out: Activity (%), PDGFRα(h)
In short: as §1

[11] = target: panel of human kinases (kinase named in endpoint) (Homo sapiens, UniProt P22455); settings: 10 µM; read-out: Activity (%), FGFR4(h)
Chain of panel of human kinases (kinase named in endpoint) (Homo sapiens, UniProt P22455) (P22455 22-802): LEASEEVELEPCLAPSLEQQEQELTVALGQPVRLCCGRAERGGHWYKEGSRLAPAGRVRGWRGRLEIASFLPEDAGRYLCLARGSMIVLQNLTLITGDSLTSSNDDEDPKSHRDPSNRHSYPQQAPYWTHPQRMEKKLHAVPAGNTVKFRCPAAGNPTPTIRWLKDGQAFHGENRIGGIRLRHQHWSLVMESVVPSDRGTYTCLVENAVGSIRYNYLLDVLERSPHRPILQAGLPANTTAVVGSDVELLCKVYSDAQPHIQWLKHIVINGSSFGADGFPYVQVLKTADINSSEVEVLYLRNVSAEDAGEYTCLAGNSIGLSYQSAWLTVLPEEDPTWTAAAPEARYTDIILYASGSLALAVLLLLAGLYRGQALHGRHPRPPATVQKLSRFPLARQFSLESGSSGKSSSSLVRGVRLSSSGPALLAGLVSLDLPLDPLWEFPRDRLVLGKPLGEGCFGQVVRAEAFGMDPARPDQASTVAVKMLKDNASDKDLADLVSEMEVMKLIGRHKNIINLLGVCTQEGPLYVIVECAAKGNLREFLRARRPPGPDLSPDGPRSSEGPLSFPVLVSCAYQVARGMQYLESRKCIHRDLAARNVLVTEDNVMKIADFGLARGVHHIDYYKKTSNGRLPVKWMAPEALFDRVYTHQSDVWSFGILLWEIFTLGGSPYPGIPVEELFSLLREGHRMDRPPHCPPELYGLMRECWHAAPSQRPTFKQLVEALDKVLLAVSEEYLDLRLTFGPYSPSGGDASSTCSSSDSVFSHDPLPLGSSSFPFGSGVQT
In short: as §1

[12] = target: panel of human kinases (kinase named in endpoint) (Homo sapiens, UniProt P36888, D835Y); settings: 10 µM; read-out: Activity (%), Flt3(D835Y)(h)
In short: as §1

[13] = target: panel of human kinases (kinase named in endpoint) (Homo sapiens, UniProt P49759); settings: 10 µM; read-out: Activity (%), CLK1(h)
In short: as §1

[14] = target: panel of human kinases (kinase named in endpoint) (Homo sapiens, UniProt P53350); settings: 10 µM; read-out: Activity (%), Plk1(h)
Chain of panel of human kinases (kinase named in endpoint) (Homo sapiens, UniProt P53350) (P53350 whole entry): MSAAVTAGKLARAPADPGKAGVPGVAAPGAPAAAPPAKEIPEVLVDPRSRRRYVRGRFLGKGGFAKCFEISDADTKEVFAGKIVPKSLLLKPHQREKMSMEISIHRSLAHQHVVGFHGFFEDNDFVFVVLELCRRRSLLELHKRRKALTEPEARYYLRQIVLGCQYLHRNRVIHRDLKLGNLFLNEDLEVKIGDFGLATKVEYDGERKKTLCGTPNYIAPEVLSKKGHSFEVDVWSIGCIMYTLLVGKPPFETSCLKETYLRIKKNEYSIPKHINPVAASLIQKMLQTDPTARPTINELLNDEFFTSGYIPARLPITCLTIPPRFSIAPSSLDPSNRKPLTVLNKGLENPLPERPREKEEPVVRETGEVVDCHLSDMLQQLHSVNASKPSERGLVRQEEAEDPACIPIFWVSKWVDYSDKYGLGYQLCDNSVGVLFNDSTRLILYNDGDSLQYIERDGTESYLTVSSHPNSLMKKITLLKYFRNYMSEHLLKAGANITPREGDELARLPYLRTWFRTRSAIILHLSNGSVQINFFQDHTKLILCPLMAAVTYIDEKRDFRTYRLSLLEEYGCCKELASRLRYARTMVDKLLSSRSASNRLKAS
In short: as §1

[15] = target: panel of human kinases (kinase named in endpoint) (Homo sapiens, UniProt P54764); settings: 10 µM; read-out: Activity (%), EphA4(h)
Chain of panel of human kinases (kinase named in endpoint) (Homo sapiens, UniProt P54764) (P54764 20-986): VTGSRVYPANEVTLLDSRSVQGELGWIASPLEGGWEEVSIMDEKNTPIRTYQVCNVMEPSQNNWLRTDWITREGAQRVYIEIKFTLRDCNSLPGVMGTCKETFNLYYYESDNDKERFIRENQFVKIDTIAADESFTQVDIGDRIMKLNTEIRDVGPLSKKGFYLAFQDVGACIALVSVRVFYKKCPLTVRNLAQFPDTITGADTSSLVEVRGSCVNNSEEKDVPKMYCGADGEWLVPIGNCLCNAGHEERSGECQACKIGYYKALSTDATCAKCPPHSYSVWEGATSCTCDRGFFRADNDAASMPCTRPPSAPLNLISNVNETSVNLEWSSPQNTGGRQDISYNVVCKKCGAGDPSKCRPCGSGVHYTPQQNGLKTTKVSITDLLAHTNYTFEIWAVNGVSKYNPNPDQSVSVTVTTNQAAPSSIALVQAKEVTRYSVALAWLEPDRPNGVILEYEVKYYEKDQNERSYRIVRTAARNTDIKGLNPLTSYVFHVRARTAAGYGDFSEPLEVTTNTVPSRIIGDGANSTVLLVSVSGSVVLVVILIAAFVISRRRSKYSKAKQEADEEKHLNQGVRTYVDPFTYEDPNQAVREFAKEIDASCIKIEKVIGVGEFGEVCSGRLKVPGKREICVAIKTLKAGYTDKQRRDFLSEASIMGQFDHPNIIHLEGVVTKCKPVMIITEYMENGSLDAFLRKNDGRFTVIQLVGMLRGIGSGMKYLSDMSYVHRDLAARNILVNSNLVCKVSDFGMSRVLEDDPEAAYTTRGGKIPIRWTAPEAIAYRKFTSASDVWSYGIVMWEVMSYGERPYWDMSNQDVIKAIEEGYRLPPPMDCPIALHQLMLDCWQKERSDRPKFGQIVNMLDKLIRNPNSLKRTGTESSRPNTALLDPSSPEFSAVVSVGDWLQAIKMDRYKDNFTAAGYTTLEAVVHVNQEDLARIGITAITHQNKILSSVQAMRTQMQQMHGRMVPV
In short: as §1

[16] = target: panel of human kinases (kinase named in endpoint) (Homo sapiens, UniProt Q13237); settings: 10 µM; read-out: Activity (%), PRKG2(h)
In short: as §1

[17] = target: panel of human kinases (kinase named in endpoint) (Homo sapiens, UniProt Q16539); settings: 10 µM; read-out: Activity (%), SAPK2a(h)
In short: as §1

[18] = target: panel of human kinases (kinase named in endpoint) (Homo sapiens, UniProt Q8WU08); settings: 10 µM; read-out: Activity (%), STK32A(h)
In short: as §1

[19] = target: panel of human kinases (kinase named in endpoint) (Homo sapiens, UniProt Q8WXR4); settings: 10 µM; read-out: Activity (%), MYO3B(h)
In short: as §1

[20] = target: panel of human kinases (kinase named in endpoint) (Homo sapiens, UniProt Q96NX5); settings: 10 µM; read-out: Activity (%), CaMKIγ(h)
Chain of panel of human kinases (kinase named in endpoint) (Homo sapiens, UniProt Q96NX5) (Q96NX5 whole entry): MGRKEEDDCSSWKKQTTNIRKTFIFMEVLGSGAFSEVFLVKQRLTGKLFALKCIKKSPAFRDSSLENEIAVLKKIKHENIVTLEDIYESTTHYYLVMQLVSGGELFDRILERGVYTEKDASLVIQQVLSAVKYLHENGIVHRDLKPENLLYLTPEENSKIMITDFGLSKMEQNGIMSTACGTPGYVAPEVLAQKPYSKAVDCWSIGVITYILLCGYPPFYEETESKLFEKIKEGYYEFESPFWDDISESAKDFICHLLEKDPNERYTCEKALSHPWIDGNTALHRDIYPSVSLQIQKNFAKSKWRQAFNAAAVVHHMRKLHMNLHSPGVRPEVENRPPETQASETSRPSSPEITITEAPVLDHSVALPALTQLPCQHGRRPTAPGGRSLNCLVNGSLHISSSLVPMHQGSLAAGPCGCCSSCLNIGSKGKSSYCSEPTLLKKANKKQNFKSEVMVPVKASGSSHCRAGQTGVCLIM
In short: as §1

[21] = target: panel of human kinases (kinase named in endpoint) (Homo sapiens, UniProt Q9H093); settings: 10 µM; read-out: Activity (%), NUAK2(h)
In short: as §1

[22] = target: panel of human kinases (kinase named in endpoint) (Homo sapiens, UniProt Q9H0K1); settings: 10 µM; read-out: Activity (%), SIK2(h)
Chain of panel of human kinases (kinase named in endpoint) (Homo sapiens, UniProt Q9H0K1) (Q9H0K1 whole entry): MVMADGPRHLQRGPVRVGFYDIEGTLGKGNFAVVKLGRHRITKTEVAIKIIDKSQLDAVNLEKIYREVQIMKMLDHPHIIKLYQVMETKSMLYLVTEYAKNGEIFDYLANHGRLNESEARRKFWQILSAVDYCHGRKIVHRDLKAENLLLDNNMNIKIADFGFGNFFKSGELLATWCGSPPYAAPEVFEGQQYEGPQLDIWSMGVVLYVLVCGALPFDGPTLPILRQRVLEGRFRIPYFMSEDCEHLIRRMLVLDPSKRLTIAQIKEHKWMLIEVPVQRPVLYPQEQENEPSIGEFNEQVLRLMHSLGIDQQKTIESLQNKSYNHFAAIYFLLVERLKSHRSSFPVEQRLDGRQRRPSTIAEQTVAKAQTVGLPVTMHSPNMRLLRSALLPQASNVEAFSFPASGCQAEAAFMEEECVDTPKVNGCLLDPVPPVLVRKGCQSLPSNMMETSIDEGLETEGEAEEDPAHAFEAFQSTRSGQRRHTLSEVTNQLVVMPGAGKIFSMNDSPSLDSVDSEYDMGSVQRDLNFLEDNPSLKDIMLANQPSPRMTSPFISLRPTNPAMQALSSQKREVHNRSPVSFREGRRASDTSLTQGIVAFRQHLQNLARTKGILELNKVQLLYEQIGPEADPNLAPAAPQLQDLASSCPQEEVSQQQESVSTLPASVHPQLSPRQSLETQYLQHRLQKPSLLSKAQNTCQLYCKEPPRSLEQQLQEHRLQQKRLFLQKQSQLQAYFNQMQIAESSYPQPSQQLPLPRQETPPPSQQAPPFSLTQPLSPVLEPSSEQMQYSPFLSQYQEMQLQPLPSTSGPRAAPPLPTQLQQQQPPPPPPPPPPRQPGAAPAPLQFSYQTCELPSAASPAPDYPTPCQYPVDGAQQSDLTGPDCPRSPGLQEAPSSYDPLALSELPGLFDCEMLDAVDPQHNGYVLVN
In short: as §1

[23] = target: panel of human kinases (kinase named in endpoint) (Homo sapiens, UniProt Q9HAZ1); settings: 10 µM; read-out: Activity (%), CLK4(h)
In short: as §1

[24] = target: panel of human kinases (kinase named in endpoint) (Homo sapiens, UniProt Q9NQU5); settings: 10 µM; read-out: Activity (%), PAK6(h)
In short: as §1

[25] = target: panel of human kinases (kinase named in endpoint) (Homo sapiens, UniProt Q9UK32); settings: 10 µM; read-out: Activity (%), Rsk4(h)
Chain of panel of human kinases (kinase named in endpoint) (Homo sapiens, UniProt Q9UK32) (Q9UK32 whole entry): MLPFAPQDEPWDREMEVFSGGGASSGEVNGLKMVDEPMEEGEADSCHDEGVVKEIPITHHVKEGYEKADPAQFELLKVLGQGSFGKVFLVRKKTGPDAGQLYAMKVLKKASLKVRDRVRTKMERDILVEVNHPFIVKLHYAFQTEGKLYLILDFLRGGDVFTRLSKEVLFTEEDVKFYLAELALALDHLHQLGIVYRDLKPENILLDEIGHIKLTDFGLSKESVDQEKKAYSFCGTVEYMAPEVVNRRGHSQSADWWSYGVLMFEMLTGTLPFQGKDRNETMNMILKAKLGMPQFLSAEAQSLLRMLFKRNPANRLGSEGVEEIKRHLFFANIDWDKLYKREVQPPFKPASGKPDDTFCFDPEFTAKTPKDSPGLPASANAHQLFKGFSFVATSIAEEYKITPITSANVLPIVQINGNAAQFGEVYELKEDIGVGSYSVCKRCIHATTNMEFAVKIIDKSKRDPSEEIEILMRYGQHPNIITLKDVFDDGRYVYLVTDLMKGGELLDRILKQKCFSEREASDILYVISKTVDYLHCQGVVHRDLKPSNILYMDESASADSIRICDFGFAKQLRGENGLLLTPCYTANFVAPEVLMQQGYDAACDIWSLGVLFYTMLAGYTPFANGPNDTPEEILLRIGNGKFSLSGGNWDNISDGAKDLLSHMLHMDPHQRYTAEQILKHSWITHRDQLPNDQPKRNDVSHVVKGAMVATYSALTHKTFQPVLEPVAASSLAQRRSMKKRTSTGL
In short: as §1

Chain of panel of human kinases (kinase named in endpoint) (Homo sapiens, UniProt O14965) (O14965 whole entry): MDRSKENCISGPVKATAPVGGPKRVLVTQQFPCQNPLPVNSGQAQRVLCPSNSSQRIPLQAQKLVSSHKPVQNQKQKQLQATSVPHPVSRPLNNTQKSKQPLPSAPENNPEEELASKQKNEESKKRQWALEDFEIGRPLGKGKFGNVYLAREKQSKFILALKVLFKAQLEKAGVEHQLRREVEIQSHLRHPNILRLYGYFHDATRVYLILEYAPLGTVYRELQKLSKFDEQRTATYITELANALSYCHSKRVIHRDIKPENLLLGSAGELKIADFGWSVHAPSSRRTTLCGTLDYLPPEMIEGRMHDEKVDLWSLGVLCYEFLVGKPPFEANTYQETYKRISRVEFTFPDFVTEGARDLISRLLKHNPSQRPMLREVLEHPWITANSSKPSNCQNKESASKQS

With `CC(C)C(=O)Nc1nc2cc(-c3ccc4c(c3)c(C(=O)NC(C)c3ccccc3)cn4C)ccn2n1` (stereo not shown) [RI-962] the activity at 10 µM [1] was 95%, the activity at 10 µM [2] was 90% and the activity at 10 µM [3] was 107%. It also gave an activity at 10 µM [4] of 108%, an activity at 10 µM [5] of 99% and an activity at 10 µM [6] of 97%. For the same molecule, the activity at 10 µM [7] was 134%, the activity at 10 µM [8] was 99% and the activity at 10 µM [9] was 107%. For the same molecule, the activity at 10 µM [10] was 99%, the activity at 10 µM [11] was 85% and the activity at 10 µM [12] was 88%. It also gave an activity at 10 µM [13] of 109%, an activity at 10 µM [14] of 122% and an activity at 10 µM [15] of 77%. It also gave an activity at 10 µM [16] of 105%, an activity at 10 µM [17] of 118% and an activity at 10 µM [18] of 113%. It also gave an activity at 10 µM [19] of 76%, an activity at 10 µM [20] of 113% and an activity at 10 µM [21] of 86%. It also gave an activity at 10 µM [22] of 101%, an activity at 10 µM [23] of 103% and an activity at 10 µM [24] of 87%. It also gave an activity at 10 µM [25] of 61%.

Source: paper PMC9653409, “Generative deep learning enables the discovery of a potent and selective RIPK1 inhibitor” (Nature Communications, 2022)
